Source: patent US4880939A, “2,5,6,7-tetranor-18,18,19,19-tetradehydro-4,8-inter-m-phenylene PGI2 derivatives” (Toray Industries, priority 1986, dated 1989)
In brackets after ≈: the same amount, converted by molar mass. Like-named read-outs stand apart in the source and are kept apart here.

Key:
[1] = background; cited from earlier work
[2] = tested on: blood pressure in the carotid; assay: Hypotensive activity; type: in vivo, Wistar male rats; conditions: dose reducing blood pressure by 25 mmHg, injected via femoral artery, chloralose anesthesia; for ED (25 mmHg): Rattus norvegicus, read-out: ED25 (hypotensive activity)
Method: A catheter is inserted into and held in the carotid of a group of Wistar male rats under anesthesia by chloralose. Another end of the catheter is connected to a polygraph with a pressure transducer to measure the blood pressure in the carotid. A compound to be tested is injected via a catheter connected to the femoral artery. A dose amount of a compound to be tested, by which the blood pressure is reduced by 25 mmHg in the dose-response curve of the hypotensive compound, is designated as ED25.

platelet aggregation = assay: Platelet aggregation-inhibiting activity (ADP-induced, platelet-rich plasma); type: cell-based, person; conditions: PRP, ADP 10 μM, compound added one minute before ADP; for IC50: Platelet
Method: The blood taken from the cubital median vein of a person is centrifuged at 800 rpm for 10 minutes and the supernatant is used as platelet-rich plasma (PRP). The PRP is distributed into small test tubes, and adenosine diphosphate (ADP) is added at a final concentration of 10 μM thereinto to induce platelet aggregation. The size of the aggregation is determined in a platelet aggregation measuring apparatus (RiKa-Denki, Tokyo, Japan) by measuring the change in turbidity of a sample in the small test tube. A compound to be tested is added to the sample one minute before the addition of ADP. The concentration of the compound to be tested, by which the platelet aggregation is reduced to 50% of that observed in a control group, is designated as IC50.

gastric acid secretion [3] = assay: Gastric acid secretion-inhibiting activity, pylorus ligation method (Shay); type: in vivo; conditions: injected into duodenum, pylorus ligated rats, five hours, five animals; for ED50, Acidity (gastric acid secretion-inhibiting activity) / ED50, Gastric juice volume (gastric acid secretion-inhibiting activity): 300 min; for ED50: Rattus norvegicus, 5 h
Method: Gastric acid secretion-inhibiting activity of the compounds of the present invention was investigated according to the pylorus ligation method described by Shay in Gastroenterology, 5, 43 (1945).
Under anesthesia by ether, the abdomen of a group of rats is incised at its median and the pylorus is ligated with a silk thread. Simultaneously, a compound to be tested is injected into the duodenum of the same rat. The abdomen is then closed. Five hours later, the abdomen is again incised and the esophagus is ligated. The whole stomach is then removed. The stomach is cut along the greater curvature and the contents of the stomach are transferred to a graduated centrifugal tube. After centrifugation at 3,000 rpm for 10 minutes, the volume of the gastric juice is measured. A portion of the supernatant is taken and titrated to pH 7 with 0.1N NaOH in a pH stat, Radio Meter Inc. An average dose amount of a compound to be tested in a group of five animals, by which either the volume of gastric juice (in ml) or the acidity (in mEq/ml) is reduced to 50% of the corresponding value of a control group, is designated as ED50.

[4] = tested on: lesions appearing on the stomach corpus; assay: Gastric cytoprotection activity (method of A. Robert; 0.2N NaOH-induced stomach lesions); type: in vivo; conditions: dose reducing ulcer index to 50% of control, 30 minutes before 0.2N NaOH; for ED50 (gastric cytoprotection activity): oral; for ED50: po
Method: Gastric cytoprotection activity of the compounds of the present invention was investigated according to the method described by A. Robert in Gastroenterology, 77(3), 443 (1979).
A compound to be tested is orally administered to a group of animals and, 30 minutes later, 0.2N NaOH is orally applied to the animals. One hour later, the animals are sacrificed under anesthesia by chloroform and their stomachs are removed and fixed in 5% formalin solution. The stomach is then incised along the greater curvature. Lengths of lesions appearing on the stomach corpus are measured and summed. The total length is served as an ulcer index. A dose amount of a compound to be tested, by which the ulcer index is reduced to 50% of the index of a control group (100%), is designated as ED50.

gastric acid secretion [5] = assay: Gastric acid secretion-inhibiting activity, method of M. Ghosh and H. Schild (perfused stomach, pentagastrin stimulation); type: in vivo, male SD rats; conditions: ratio of index (area of pH time course) to that of PGE2; femoral vein injection; pentagastrin 0.05 μg/kg per minute
From the text: The gastric acid secretion-inhibiting activity of the compounds of the present invention was also investigated according to the method described by M. Ghosh and H. Schild, Br. J. Pharmacol., 13, 54 (1958).
A group of male SD rats is incised in the abdomen under anesthesia by urethane. The lumen of the stomach is perfused with saline through a double tube cannula which has been inserted into the stomach through a lumen formed in the cardia. The pH of draining gastric acid is monitored by a pH meter. The secretion of gatric acid is stimulated by continuous infusion of pentagastrin at a rate of 0.05 μg/kg per minute. When the pH of the gastric acid becomes stable at about 4.0, a compound to be tested is injected through the femoral vein. An index for the gastric acid secretion-inhibiting activity of a compound to be tested is calculated from the area surrounded by a curve drawn by the time course of the pH of the gastric acid, from the time point when an initial increase of the pH is observed due to the gastric acid secretion-inhibition by the compound injected to the time point when the pH comes back to the baseline. The index thus obtained is compared to that of PGE2 and the ratio of the index to that of PGE2 is calculated.

[6] = unstable exo-enol structure; converted into 6-oxo PGF1α; cited from earlier work
[7] = tested on: platelet aggregation, gastric acid secretion, peripheral blood vessel; conditions: background; cited from earlier work
[8] = background; cited from earlier work; remark: listed apart in the source
[9] = acidity reduced to 50% of control
[10] = gastric juice volume reduced to 50% of control
[11] = acidity reduced to 50% of control, read-out: ED50, Acidity (gastric acid secretion-inhibiting activity)
[12] = gastric juice volume reduced to 50% of control, read-out: ED50, Gastric juice volume (gastric acid secretion-inhibiting activity)

SMILES | Relative activity (PGE2 = 1), gastric acid secretion-inhibiting activity (gastric acid secretion [5]) | IC50 (platelet aggregation) | ED50 (gastric acid secretion [3]; [11]) | ED50 (gastric acid secretion [3]; [12]) | ED (25 mmHg) [2] | ED50 [4] | further results
CCCCC[C@H](O)/C=C/[C@@H]1[C@@H](CC(=O)CCCCC(=O)O)[C@@H](O)C[C@H]1O [6-oxo PGF1α] |  |  |  |  |  |  | physiological activity [1]: substantially inactive physiologically
CC#CCC(C)C(O)C=CC1C(O)CC2Oc3c(CCC(=O)O)cccc3C21 [Compound 38, 16(R)-Methyl-2,5,6,7-tetranor-18,18,19,19-tetradehydro-4,8-inter-m-phenylene PGI2] |  |  |  |  |  |  | ED25 (hypotensive activity) [2]: 0.57 µg/kg; IC50 (platelet aggregation-inhibiting activity) (platelet aggregation): 6.5 ng/mL (≈ 16.9 nM); ED50, Acidity (gastric acid secretion-inhibiting activity) (gastric acid secretion [3]; [9]): 490 µg/kg; ED50, Gastric juice volume (gastric acid secretion-inhibiting activity) (gastric acid secretion [3]; [10]): > 1000 µg/kg; ED50 (gastric cytoprotection activity) [4]: 24.1 µg/kg
CC#CCC(C)C(O)C=CC1C(O)CC2Oc3c(CCC(=O)O)cccc3C21 [Compound 39, 16(S)-methyl-2,5,6,7-tetranor-18,18,19,19-tetradehydro-4,8-inter-m-phenylene PGI2] |  |  |  |  |  |  | ED25 (hypotensive activity) [2]: 0.07 µg/kg; IC50 (platelet aggregation-inhibiting activity) (platelet aggregation): 0.42 ng/mL (≈ 1.09 nM); ED50, Acidity (gastric acid secretion-inhibiting activity) (gastric acid secretion [3]; [9]): 9.5 µg/kg; ED50, Gastric juice volume (gastric acid secretion-inhibiting activity) (gastric acid secretion [3]; [10]): 25 µg/kg; ED50 (gastric cytoprotection activity) [4]: 0.38 µg/kg
CCC#CCC(C)C(O)C=CC1C(O)CC2Oc3c(CCC(=O)O)cccc3C21 (stereo not shown) [Compound 42, 16-Methyl-20a-homo-2,5,6,7-tetranor-18,18,19,19-tetradehydro-4,8-inter-m-phenylene PGI2] | 26 | 0.34 ng/mL (≈ 0.853 nM) | 23 µg/kg | 18 µg/kg |  |  | 
CCCC#CCC(C)C(O)C=CC1C(O)CC2Oc3c(CCC(=O)O)cccc3C21 (stereo not shown) [Compound 46, 16-Methyl-20a,20b-dihomo-2,5,6,7-tetranor-18,18,19,19-tetradehydro-4,8-inter-m phenylene PGI2] |  | 0.96 ng/mL (≈ 2.33 nM) | 140 µg/kg | 120 µg/kg | 0.22 µg/kg | 2.33 µg/kg | 
CCCCC#CCC(C)C(O)C=CC1C(O)CC2Oc3c(CCC(=O)O)cccc3C21 (stereo not shown) [Compound 50, 16-Methyl-20a,20b,20c-trihomo-2,5,6,7-tetranor-18,18,19,19-tetradehydro-4,8-inter-m-phenylene PGI2] |  | 0.63 ng/mL (≈ 1.48 nM) | 740 µg/kg | 510 µg/kg |  | 3.74 µg/kg | 
CC#CCC(C)(C)C(O)C=CC1C(O)CC2Oc3c(CCC(=O)O)cccc3C21 (stereo not shown) [Compound 54, 16,16-Dimethyl-2,5,6,7-tetranor-18,18,19,19-tetradehydro-4,8-inter-m-phenylene PGI2] | 16 | 7.3 ng/mL (≈ 18.3 nM) | 230 µg/kg | > 300 µg/kg | 0.64 µg/kg | 2.8 µg/kg | 
CCC#CCC(C)(C)C(O)C=CC1C(O)CC2Oc3c(CCC(=O)O)cccc3C21 (stereo not shown) [Compound 57, 16,16-Dimethyl-20a-homo-2,5,6,7-tetranor-18,18,19,19-tetradehydro-4,8-inter-m-phenylene PGI2] | 5.3 | 3.2 ng/mL (≈ 7.76 nM) | 87 µg/kg | 210 µg/kg | 0.14 µg/kg | 1.14 µg/kg | 
CCCCC#CCC(C)(C)C(O)C=CC1C(O)CC2Oc3c(CCC(=O)O)cccc3C21 (stereo not shown) [Compound 60, 16,16-Dimethyl-20a,20b,20c-trihomo-2,5,6,7-tetranor-18,18,19,19-tetradehydro-4,8-inter-m-phenylene PGI2] | 0.5 | 3 ng/mL (≈ 6.81 nM) | > 3000 µg/kg | > 3000 µg/kg |  |  | 
CCCCCC#CCC(C)(C)C(O)C=CC1C(O)CC2Oc3c(CCC(=O)O)cccc3C21 (stereo not shown) [Compound 64, 16,16-dimethyl-20a,20b,20c,20d-tetrahomo-2,5,6,7-tetranor-18,18,19,19-tetradehydro-4,8-inter-m-phenylene PGI2] | 0.25 | 5.5 ng/mL (≈ 12.1 nM) | > 10000 µg/kg | 5600 µg/kg | 15.5 µg/kg | 27.7 µg/kg | 
CC#CCC(C)(C)C(O)C=CC1C(O)CC2Oc3c(CCCO)cccc3C21 (stereo not shown) [Compound 69, 3-Decarboxy-3-hydroxymethyl-16,16-dimethyl-2,5,6,7-tetranor-18,18,19,19-tetradehydro-4,8-inter-m-phenylene PGI2] | 2.7 |  | 270 µg/kg | > 3000 µg/kg | > 100 µg/kg | 0.82 µg/kg | 
CCCCC[C@H](O)/C=C/[C@H]1[C@H](O)CC(=O)[C@@H]1C/C=C\CCCC(=O)O [PGE2, reference compound] | 1 |  |  |  |  |  | 
CCCCC[C@H](O)/C=C/[C@@H]1[C@H]2C/C(=C/CCCC(=O)O)O[C@H]2C[C@H]1O [PGI2, Prostaglandin I2] |  |  |  |  |  |  | stability in neutral aqueous solutions [6]: extremely unstable; gastric acid secretion-inhibiting activity [7]: potent; peripheral blood vessel-dilating activity [7]: potent; platelet aggregation-inhibiting activity [7]: potent; duration of physiological activities in vivo [8]: only short duration; stability in vivo [8]: unstable in vivo
